Results from patent US20060035829A1, “Chemokine combinations to mobilize progenitor/stem cells” (AnorMED Inc., priority 2004, published 2006).

Columns and labels:
[1] = system: CFU-GM progenitor cells in peripheral blood; assay: Peripheral blood progenitor cell (PBSC) mobilization, CFU-GM assay of PBMC; format: in vivo; settings: BALB/c mice, mean (X)
Method: Experimental procedures are as previously described (Pelus, L. M., et al., Blood (2001) 97:1534-1542; Blood (2004) 103:110-119). […] Mobilization experiments were performed in BALB/c mice (3 mice group). For mobilization with AMD3100 or GROβ alone, PBSC mobilization was quantified at the peak of mobilization determined for either agent in previous experiments. Thus, PBSC mobilization was quantified at 15 mins following an s.c. injection of 2.5 mg/kg GROβ and at 1 hour following an s.c. injection of 5 mg/kg AMD3100. In the combination experiment, PBSC mobilization was quantitated at 5, 15, 30, 60 and 150 minutes after a single subcutaneous injection of 2.5 mg/kg GROβ (R & D Systems) in saline and 5 mg/kg AMD3100. The compounds were injected separately and simultaneously at different s.c. sites. Injections were scheduled so that control and mobilized mice were evaluated at the same time in every experiment. Mice were killed by CO2 asphyxiation and blood was obtained by cardiac puncture using syringes coated with EDTA (ethylenediaminetetra acetic acid). PBMC's were obtained by separation of peripheral blood (0.4 mL) on Lympholyte-M (Cedarlane Labs, Hornby, ON, Canada). Complete blood counts (CBC's) were performed on a Hemavet Mascot (CDC Technologies, Oxford, Conn.). Manual differentials were performed on Wright-Giemsa-stained (Hema-Tek 1000, Bayer, Elkhart, Ind.) blood smears or spleen and bone marrow cell cytospin preparations (Shandon, Pittsburgh, Pa.). CFU-GM Assay PBMC's were assayed for CFU-GM in McCoy 5A media with 15% heat-inactivated fetal bovine serum (Hyclone Sterile Systems, Logan, Utah) and 0.3% agar (Difco Laboratories, Detroit, Mich.). PBMC's were cultured at 2×10^5/mL. CFU-GM were stimulated with 10 ng/mL recombinant murine GM-CSF (rmGM-CSF), 10 ng/mL rmIL-1α, and 50 ng/mL stem cell factor (SCF). Triplicate cultures from individual animals were incubated at 37° C., 5% CO2, 5% O2 in air for 7 days. Total CFU-GM/mL blood was determined by multiplying CFU frequencies by PBMC/ml blood corrected for white blood cell (WBC) recovery after Lympholyte-M separation.

peripheral blood cells = assay: Peripheral blood differential summary (complete blood counts, manual differentials); format: in vivo; settings: BALB/c mice
Method: Mobilization experiments were performed in BALB/c mice (3 mice group). For mobilization with AMD3100 or GROβ alone, PBSC mobilization was quantified at the peak of mobilization determined for either agent in previous experiments. Thus, PBSC mobilization was quantified at 15 mins following an s.c. injection of 2.5 mg/kg GROβ and at 1 hour following an s.c. injection of 5 mg/kg AMD3100.
In the combination experiment, PBSC mobilization was quantitated at 5, 15, 30, 60 and 150 minutes after a single subcutaneous injection of 2.5 mg/kg GROβ (R & D Systems) in saline and 5 mg/kg AMD3100. The compounds were injected separately and simultaneously at different s.c. sites. Injections were scheduled so that control and mobilized mice were evaluated at the same time in every experiment. Mice were killed by CO2 asphyxiation and blood was obtained by cardiac puncture using syringes coated with EDTA (ethylenediaminetetra acetic acid). PBMC's were obtained by separation of peripheral blood (0.4 mL) on Lympholyte-M (Cedarlane Labs, Hornby, ON, Canada). Complete blood counts (CBC's) were performed on a Hemavet Mascot (CDC Technologies, Oxford, Conn.). Manual differentials were performed on Wright-Giemsa-stained (Hema-Tek 1000, Bayer, Elkhart, Ind.) blood smears or spleen and bone marrow cell cytospin preparations (Shandon, Pittsburgh, Pa.).

Compound	CFU-GM/ml ([1]; 60 min after s.c. injection (GROβ 2.5 mg/kg, AMD3100 5 mg/kg)) [CFU-GM/ml]	CFU-GM Mobilized Above Control ([1]; 60 min after s.c. injection)	Fold Inc (CFU-GM/ml over PBS control) ([1]; 60 min after s.c. injection)	% LYMPH (peripheral blood cells; 60 min after s.c. injection) [%]	% MONO (peripheral blood cells; 60 min after s.c. injection) [%]	% PMN (peripheral blood cells; 60 min after s.c. injection) [%]	LYMPH (peripheral blood cells; 60 min after s.c. injection)	MONO (peripheral blood cells; 60 min after s.c. injection)	PMN (peripheral blood cells; 60 min after s.c. injection)	WBC (peripheral blood cells; 60 min after s.c. injection)	CFU-GM/ml ([1]; 15 min after s.c. injection (GROβ 2.5 mg/kg, AMD3100 5 mg/kg)) [CFU-GM/ml]	CFU-GM Mobilized Above Control ([1]; 15 min after s.c. injection)	Fold Inc (CFU-GM/ml over PBS control) ([1]; 15 min after s.c. injection)	% LYMPH (peripheral blood cells; 15 min after s.c. injection) [%]	% MONO (peripheral blood cells; 15 min after s.c. injection) [%]	% PMN (peripheral blood cells; 15 min after s.c. injection) [%]	LYMPH (peripheral blood cells; 15 min after s.c. injection)	MONO (peripheral blood cells; 15 min after s.c. injection)	PMN (peripheral blood cells; 15 min after s.c. injection)	WBC (peripheral blood cells; 15 min after s.c. injection)
c1cc(CN2CCCNCCNCCCNCC2)ccc1CN1CCCNCCNCCCNCC1 [AMD3100, 1,1′-[1,4-phenylene-bis(methylene)]-bis-1,4,8,11-tetraazacyclotetradecane]	698.19	576.15	5.72	59.17	3.27	36.61	8.54	0.47	5.35	14.49	–	–	–	–	–	–	–	–	–	–
GROβ: chemokine GROβ (R & D Systems) in saline; acts via the CXCR2 receptor	–	–	–	–	–	–	–	–	–	–	2505.54	2383.50	20.53	65.19	5.65	27.35	7.76	0.67	3.34	11.98
